Data from ChEMBL document CHEMBL5113455, “Discovery of benzyloxyphenyl- and phenethylphenyl-imidazole derivatives as a new class of ante-drug type boosters” (Bioorg Med Chem Lett, 2022).

test system: CYP3A4; test: in vitro; conditions: rat, microsomes

Structure (SMILES)	inhibition at 10 min, 10 µM [%]
CC(=O)N1CCN(c2ccc(OCC3COC(Cn4ccnc4)(c4ccc(Cl)cc4Cl)O3)cc2)CC1 (centres undefined) [KETOCONAZOLE]	94.4

same assay, conditions: rat, rat liver microsomes, probe midazolam

Structure (SMILES)	inhibition at 10 min, 10 µM [%]
CCCCCCOC(=O)c1ccc(COc2ccc(-n3ccnc3)cc2)cc1	72.2
CCCOC(=O)c1ccc(CCc2ccc(-n3ccnc3)cc2)cc1	90.4
CCCCOC(=O)c1ccc(COc2ccc(-n3ccnc3)cc2)cc1	39.9
CC(=O)OCCOc1ccc(-n2ccnc2)cc1	34.7
CCC(C)COC(=O)c1ccc(COc2ccc(-n3ccnc3)cc2)cc1 (centres undefined)	58.4
Nn1nnc2ccccc21	80.8
CCOC(=O)COc1ccc(-n2ccnc2)cc1	12.7
O=C(Oc1ccc(-n2ccnc2)cc1)c1ccc(C(F)(F)F)cc1	15.6
COC(=O)c1ccc(COc2ccc(-n3ccnc3)cc2)cc1	72
CC(=O)OCc1ccc(COc2ccc(-n3ccnc3)cc2)cc1	87.1
O=C(OCCc1ccccc1)c1ccc(COc2ccc(-n3ccnc3)cc2)cc1	61.8
CCOC(=O)c1ccc(CCc2ccc(-n3ccnc3)cc2)cc1	74
COC(=O)c1ccc(CCc2ccc(-n3ccnc3)cc2)cc1	82.8
O=C(OCC(F)(F)F)c1ccc(COc2ccc(-n3ccnc3)cc2)cc1	10.4
c1ccc(COc2ccc(-n3ccnc3)cc2)cc1	82.5
O=C(Oc1ccc(-n2ccnc2)cc1)c1ccc(Cl)cc1	16.5
OCc1ccc(COc2ccc(-n3ccnc3)cc2)cc1	84.7
OCCOc1ccc(-n2ccnc2)cc1	6.7
O=C(O)c1ccc(CCc2ccc(-n3ccnc3)cc2)cc1	15.5
CCCOC(=O)c1ccc(COc2ccc(-n3ccnc3)cc2)cc1	42.6
N#Cc1ccc(COc2ccc(-n3ccnc3)cc2)cc1	88.1
O=C(O)c1ccc(COc2ccc(-n3ccnc3)cc2)cc1	15.5

test system: not listed separately; test: Drug metabolism in rat liver microsome assessed as metabolite 4-[(4-imidazol-1-ylphenoxy)methyl]benzoic acid formation at 10 uM and measured upto 30 mins by liquid chromatography-tandem mass spectrometry; type: ADME; conditions: microsomes, 0.5 h

Structure (SMILES)	Drug metabolism
COC(=O)c1ccc(COc2ccc(-n3ccnc3)cc2)cc1	Metabolite_Detected
